These results are taken from patent US20210386069A1 (priority 2018, published 2021).

The nature of the first data set: log P by HPLC on a reversed-phase column (C 18), EEC Directive 79/831 Annex V.A8. It is filed as physicochemical. The note with it: HPLC reversed-phase C 18, 40° C., 0.1% aqueous formic acid and acetonitrile, linear gradient 10% to 95% acetonitrile. Here is the method: In table 1, the log P values were determined in accordance with EEC Directive 79/831 Annex V.A8 by HPLC (High Performance Liquid Chromatography) on a reversed-phase column (C 18), using the method described below:
temperature: 40° C.; mobile phases: 0.1% aqueous formic acid and acetonitrile; linear gradient from 10% acetonitrile to 95% acetonitrile;
If more than one Log P value is available within the same method, all the values are given and separated by “;”.
Calibration was carried out using unbranched alkan-2-ones (comprising 3 to 16 carbon atoms) with known log P values (determination of the log P values by the retention times using linear interpolation between two successive alkanones). lambda-max-values were determined using UV-spectra from 200 nm to 400 nm and the peak values of the chromatographic signals.
As to `Fc1ccc(Nc2cnc3ccccc3c2)c(-c2cccnc2)c1` [I.001], the logP is given as 1.39.

`Cc1nc2ccccc2nc1Nc1cccc(F)c1-c1ccncc1F` [I.002] registered a log partition coefficient (logP) of 2.57.

Regarding `Cc1nc2c(F)c(F)ccc2cc1Nc1ccccc1-c1ccnnc1` [I.003], the logP came out at 2.28.

Molecule `Cc1cncc(-c2ccccc2Nc2cc3ccc(F)c(F)c3nc2C)c1` [I.004] registered a lipophilicity (logP) of 1.99.

As to `Cc1cc(-c2ccccc2Nc2cc3ccc(F)c(F)c3nc2C)ccn1` [I.005], the logP was 1.75.

The molecule `Cc1ccncc1-c1ccccc1Nc1cc2ccc(F)c(F)c2nc1C` [I.006] displayed a logP of 1.86.

`Cc1nc2c(F)c(F)ccc2cc1Cc1cccc(F)c1-c1ccncc1` [I.007] registered a logP of 2.00.

Molecule `Cc1nc2c(F)c(F)ccc2cc1Cc1cccc(F)c1-c1cccnc1` [I.008] yielded a lipophilicity (logP) of 2.64.

The molecule `Cc1nc2c(F)c(F)ccc2cc1Nc1cccc(F)c1-c1cccnc1` [I.009] gave a logP of 2.28.

Take `Cc1nc2c(F)c(F)ccc2cc1Nc1cccc(F)c1-c1ccncc1` [I.010]: the logP is reported as 2.01.

On to `Cc1nc2c(F)c(F)ccc2cc1Cc1cccc(F)c1-c1cncnc1` [I.011], for which the log partition coefficient (logP) worked out at 2.76.

The molecule `Cc1nc2c(F)cccc2cc1Nc1cc(F)ccc1-c1ccncc1F` [I.012] registered a lipophilicity (logP) of 2.95.

As to `Cc1nc2c(F)c(F)ccc2cc1Nc1cccc(F)c1-c1cncnc1` [I.013], the logP worked out at 2.61.

In turn, `Cc1nc2c(F)cccc2nc1Nc1cccc(F)c1-c1ccncc1F` [I.015] registered a logP of 2.67.

`Cc1nc2c(F)c(F)ccc2cc1Nc1cccc(F)c1-c1ccnnc1` [I.016] showed a log partition coefficient (logP) of 2.44.

As to `Cc1nc2c(F)c(F)ccc2cc1Cc1cccc(F)c1C1=CCCCO1` [I.017], the logP worked out at 4.41.

The molecule `Cc1nc2c(F)c(F)ccc2cc1Nc1cccc(F)c1C1=CCCCO1` [I.018] displayed a log partition coefficient (logP) of 4.44.

For the molecule `Cc1nc2c(F)c(F)ccc2cc1Nc1ccccc1-c1ccc(C#N)nc1` [I.019], the logP is 3.25.

In turn, `Cc1nc2c(F)c(F)ccc2cc1Nc1ccccc1-c1cncc(C#N)c1` [I.020] displayed a logP of 3.04.

As for `Cc1nc2c(F)c(F)ccc2cc1Nc1ccccc1-c1ccncc1C#N` [I.021], the lipophilicity (logP) is given as 1.41.

For the molecule `CCc1cnccc1-c1ccccc1Nc1cc2ccc(F)c(F)c2nc1C` [I.022], the lipophilicity (logP) worked out at 2.08.

For the molecule `CCc1ccncc1-c1ccccc1Nc1cc2ccc(F)c(F)c2nc1C` [I.023], the log partition coefficient (logP) is listed as 2.08.

The molecule `CCc1ncccc1-c1ccccc1Nc1cc2ccc(F)c(F)c2nc1C` [I.024] gave a lipophilicity (logP) of 2.03.

`Cc1cncc(C)c1-c1ccccc1Nc1cc2ccc(F)c(F)c2nc1C` [I.025]: the logP is 2.05.

Molecule `Cc1nc2c(F)c(F)ccc2cc1Nc1ccccc1-c1cccc(=O)n1C` [I.026] yielded a logP of 2.52.

Molecule `COc1cnccc1-c1ccccc1Nc1cc2ccc(F)c(F)c2nc1C` [I.027] displayed a log partition coefficient (logP) of 2.14.

Consider `COc1cc(-c2ccccc2Nc2cc3ccc(F)c(F)c3nc2C)ccn1` [I.028], for which the log partition coefficient (logP) came out at 3.56.

Molecule `COc1cccc(-c2ccccc2Nc2cc3ccc(F)c(F)c3nc2C)n1` [I.029] gave a logP of 4.66.

With `COc1ccncc1-c1ccccc1Nc1cc2ccc(F)c(F)c2nc1C` [I.030], the logP is reported as 1.77.

`Cc1cc(-c2ccccc2Nc2cc3ccc(F)c(F)c3nc2C)cnc1F` [I.031] gave a logP of 3.69.

In the case of `Cc1cncc(-c2c(F)cccc2Nc2cc3ccc(F)c(F)c3nc2C)c1` [I.032], the logP was found to be 2.26.

`Cc1cc(-c2c(F)cccc2Nc2cc3ccc(F)c(F)c3nc2C)ccn1` [I.033] showed a logP of 1.88.

`Cc1nc2c(F)c(F)ccc2cc1Nc1ccccc1-c1ccncc1Cl` [I.034] gave a logP of 3.37.

`Cc1nc2c(F)c(F)ccc2cc1Nc1ccccc1-c1cccc(Cl)n1` [I.035]: the logP was found to be 4.97.

Regarding `Cc1nc2c(F)c(F)ccc2cc1Nc1ccccc1-c1ccnc(Cl)c1` [I.036], the log partition coefficient (logP) was found to be 3.56.

In turn, `Cc1nc2c(F)c(F)ccc2cc1Nc1ccccc1-c1ccc(Cl)nc1` [I.037] displayed a logP of 3.62.

Take `Cc1nc2c(F)c(F)ccc2cc1Nc1ccccc1-c1cccnc1Cl` [I.038]: the logP came out at 3.43.

For the molecule `Cc1nc2c(F)c(F)ccc2cc1Nc1ccccc1-c1cnccc1Cl` [I.039], the log partition coefficient (logP) is reported as 3.22.

`Cc1nc2c(F)c(F)ccc2cc1Nc1ccccc1-c1cncc(Cl)c1` [I.040]: the log partition coefficient (logP) is recorded as 3.54.

`Cc1nc2c(F)c(F)ccc2cc1Cc1cccc(F)c1-c1ccncc1F` [I.041] had a logP of 3.40.

Molecule `Cc1nc2c(F)c(F)ccc2cc1Cc1cccc(F)c1-c1cccnc1F` [I.043] returned a lipophilicity (logP) of 3.55.

Take `Cc1nc2c(F)c(F)ccc2cc1Cc1cccc(F)c1-c1ccnc(F)c1` [I.044]: the logP turned out to be 3.65.

`Cc1nc2c(F)c(F)ccc2cc1Nc1cccc(F)c1-c1ccc(F)nc1` [I.045]: the logP amounted to 3.46.

With `Cc1nc2c(F)c(F)ccc2cc1Nc1cccc(F)c1-c1ccnc(F)c1` [I.046], the logP is 3.46.

As to `Cc1nc2c(F)c(F)ccc2cc1Nc1cccc(F)c1-c1cccnc1F` [I.047], the log partition coefficient (logP) is 3.35.

As for `Cc1nc2c(F)c(F)ccc2cc1Nc1c(F)cccc1-c1ccncc1F` [I.048], the logP is reported as 3.04.

Consider `Cc1nc2c(F)c(F)ccc2cc1Nc1ccc(F)cc1-c1ccncc1F` [I.049], for which the logP was 3.24.

`Cc1nc2c(F)c(F)ccc2nc1Cc1cccc(F)c1-c1ccncc1F` [I.050] yielded a log partition coefficient (logP) of 3.31.

Regarding `Cc1nc2c(F)c(F)ccc2cc1Nc1cccc(F)c1-c1ccncc1F` [I.051], the logP came to 3.29.

`Cc1nc2c(F)c(F)ccc2cc1Nc1ccccc1-c1ccnc(F)c1F` [I.053] had a logP of 3.69.

In turn, `Cc1nc2c(F)c(F)ccc2cc1Nc1ccccc1-c1cc(F)nc(F)c1` [I.054] showed a logP of 3.91.

On to `Cc1nc2c(F)c(F)ccc2cc1Nc1ccccc1-c1ccc(F)nc1F` [I.055], for which the log partition coefficient (logP) is given as 3.81.

For `Cc1nc2c(F)c(F)ccc2nc1Nc1cccc(F)c1-c1ccncc1F` [I.056], the lipophilicity (logP) worked out at 2.98.

For `Cc1nc2c(F)c(F)ccc2cc1Nc1ccccc1-c1cnccc1C1CC1` [I.057], the logP is recorded as 2.05.

For the molecule `Cc1nc2c(F)c(F)ccc2cc1Nc1ccccc1-c1ccncc1C1CC1` [I.058], the logP is recorded as 2.12.

In turn, `Cc1nc2c(F)c(F)ccc2cc1Nc1ccccc1-c1cccnc1C1CC1` [I.059] displayed a logP of 2.80.

Take `CCCc1ncccc1-c1ccccc1Nc1cc2ccc(F)c(F)c2nc1C` [I.060]: the log partition coefficient (logP) is 2.21.

In turn, `CCCc1cnccc1-c1ccccc1Nc1cc2ccc(F)c(F)c2nc1C` [I.061] gave a logP of 2.31.

In turn, `CCCc1ccncc1-c1ccccc1Nc1cc2ccc(F)c(F)c2nc1C` [I.062] registered a logP of 2.41.

On to `Cc1nc2c(F)c(F)ccc2cc1Nc1cccc(F)c1-c1ccncc1C#N` [I.063], for which the lipophilicity (logP) is 1.46.

`Cc1nc2c(F)c(F)ccc2cc1Nc1cccc(F)c1-c1cncc(C#N)c1` [I.064] displayed a logP of 3.16.

`CCOc1ccc(-c2ccccc2Nc2cc3ccc(F)c(F)c3nc2C)cn1` [I.065] had a logP of 4.02.

In turn, `CCOc1ncccc1-c1ccccc1Nc1cc2ccc(F)c(F)c2nc1C` [I.066] came in with a log partition coefficient (logP) of 4.24.

Take `CCc1cnccc1-c1c(F)cccc1Nc1cc2ccc(F)c(F)c2nc1C` [I.067]: the log partition coefficient (logP) was 2.41.

Consider `CCc1ccncc1-c1c(F)cccc1Nc1cc2ccc(F)c(F)c2nc1C` [I.068], for which the lipophilicity (logP) is given as 2.41.

In turn, `CCc1ncccc1-c1c(F)cccc1Nc1cc2ccc(F)c(F)c2nc1C` [I.069] yielded a logP of 2.41.

For the molecule `Cc1cncc(C)c1-c1c(F)cccc1Nc1cc2ccc(F)c(F)c2nc1C` [I.070], the lipophilicity (logP) amounted to 2.28.

The molecule `CSc1ccc(-c2ccccc2Nc2cc3ccc(F)c(F)c3nc2C)cn1` [I.071] displayed a logP of 3.81.

Molecule `CSc1ncccc1-c1ccccc1Nc1cc2ccc(F)c(F)c2nc1C` [I.072] yielded a logP of 4.08.

Molecule `COc1ccc(-c2c(F)cccc2Cc2cc3ccc(F)c(F)c3nc2C)cn1` [I.073] yielded a log partition coefficient (logP) of 3.99.

As for `COc1cccc(-c2c(F)cccc2Cc2cc3ccc(F)c(F)c3nc2C)n1` [I.074], the logP is 3.79.

The molecule `COc1ncccc1-c1c(F)cccc1Cc1cc2ccc(F)c(F)c2nc1C` [I.075] showed a logP of 3.79.

With `COc1ncccc1-c1c(F)cccc1Nc1cc2ccc(F)c(F)c2nc1C` [I.076], the logP is given as 3.70.

The molecule `COc1ccc(-c2c(F)cccc2Nc2cc3ccc(F)c(F)c3nc2C)cn1` [I.077] had a log partition coefficient (logP) of 3.71.

`COc1ncc(-c2c(F)cccc2Cc2cc3ccc(F)c(F)c3nc2C)cn1` [I.078]: the log partition coefficient (logP) was 3.25.

In turn, `COc1c(-c2ccccc2Nc2cc3ccc(F)c(F)c3nc2C)ccnc1F` [I.079] returned a logP of 3.72.

Molecule `COc1cccc(-c2c(F)cccc2Nc2cc3ccc(F)c(F)c3nc2C)n1` [I.080] showed a logP of 4.55.

Still in this data set, the particulars now being: reversed-phase HPLC column (C 18); preparation examples; log P as defined in table 1 (HPLC, 0.1% aqueous formic acid/acetonitrile).
On to `Nc1cccc(F)c1-c1ccncc1F`, for which the chromatographic logP amounted to 2.38.

`Cc1nc2c(F)c(F)ccc2cc1Cc1cscc1Br` [3-[(4-bromo-3-thienyl)methyl]-7,8-difluoro-2-methylquinoline]: the chromatographic logP is 4.01.

Consider `ClCc1cscc1Br` [3-bromo-4-(chloromethyl)thiophene], for which the chromatographic logP came out at 2.99.

Consider `Cc1nc2c(F)c(F)ccc2cc1Cc1cccc(F)c1-c1ccc(F)nc1` [I.042, 7,8-difluoro-3-[3-fluoro-2-(6-fluoropyridin-3-yl)benzyl]-2-methylquinoline], for which the chromatographic logP was found to be 3.7.
